Biological target: T1, full length human recombinant glucocorticoid receptor (Homo sapiens, UniProt P04150)
T1 construct: It contains some partially purified full length human recombinant glucocorticoid receptor; purchased Panvera/Invitrogen PV4302
T1 sequence (P04150 1-777): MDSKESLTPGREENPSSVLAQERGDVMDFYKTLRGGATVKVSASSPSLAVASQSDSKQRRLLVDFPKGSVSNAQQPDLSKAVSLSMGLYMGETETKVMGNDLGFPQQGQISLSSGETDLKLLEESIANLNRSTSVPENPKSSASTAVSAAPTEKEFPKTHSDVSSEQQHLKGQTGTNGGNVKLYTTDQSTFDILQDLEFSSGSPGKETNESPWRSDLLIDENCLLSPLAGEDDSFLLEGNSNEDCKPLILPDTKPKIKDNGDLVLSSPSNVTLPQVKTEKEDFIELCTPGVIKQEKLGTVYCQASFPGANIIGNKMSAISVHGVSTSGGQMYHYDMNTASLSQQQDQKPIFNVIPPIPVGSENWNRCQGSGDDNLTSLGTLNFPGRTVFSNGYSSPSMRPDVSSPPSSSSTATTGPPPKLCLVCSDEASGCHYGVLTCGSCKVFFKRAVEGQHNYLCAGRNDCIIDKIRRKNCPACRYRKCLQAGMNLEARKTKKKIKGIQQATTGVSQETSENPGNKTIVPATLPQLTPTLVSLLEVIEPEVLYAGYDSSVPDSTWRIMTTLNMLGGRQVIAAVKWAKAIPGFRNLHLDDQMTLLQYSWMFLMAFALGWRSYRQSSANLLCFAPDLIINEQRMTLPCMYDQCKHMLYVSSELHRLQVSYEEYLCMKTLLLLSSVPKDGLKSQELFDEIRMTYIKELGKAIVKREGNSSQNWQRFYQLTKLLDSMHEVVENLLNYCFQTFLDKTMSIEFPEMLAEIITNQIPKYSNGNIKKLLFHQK
Experiment: Glucocorticoid Receptor Binding Assay (Glucocorticoid Receptor Competitor Assay far red kit, fluorescence polarization)
Conditions: competition with fluorescent GR ligand Fluormone GS Far Red, 3 hours at 22° C., pH 7.4; Ki calculated from IC50 by Cheng-Prusoff
Procedure, shortened: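 Compounds in serial dilution (from intermediate 4.2% DMSO stock) displace Fluormone GS Far Red from full-length human recombinant GR with stabilizing peptide, pH 7.4, incubated 3 hours at 22° C dark. Polarized fluorescence (610–660 nm) gives IC50 via sigmoidal fit, converted to Ki by Cheng-Prusoff.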

Row | Ki [nM] | SMILES
1 | 0.8 | C[C@@H](c1ccc(Oc2ccc(C(=O)O)c(Cl)c2)cc1Cl)[C@](O)(c1ccc2c(c1)N(C)C(=O)CO2)C(F)(F)F [Example 219, 2-Chloro-4-{3-chloro-4-[(1S,2S)-3,3,3-trifluoro-2-hydroxy-1-methyl-2-(4-methyl-3-oxo-3,4-dihydro-2H-benzo[1,4]oxazin-6-yl)-propyl]-phenoxy}-benzoic acid]
2 | 3.9 | C[C@H](c1ccc(Oc2ccc(C(=O)O)nn2)cc1Cl)[C@@](O)(c1ccc2oc(=O)n(C)c2c1)C(F)(F)F (relative stereo) [Example 201, 6-{3-Chloro-4-[3,3,3-trifluoro-2-hydroxy-1-methyl-2-(3-methyl-2-oxo-2,3-dihydro-benzooxazol-5-yl)-propyl]-phenoxy}-pyridazine-3-carboxylic acid]
3 | 1.7 | COC(=O)c1ccc(Oc2ccc([C@H](C)[C@](O)(c3cc(C)c(C#N)c(C)c3)C(F)(F)F)c(Cl)c2)cc1Cl (stereo in doubt) [Example 143, 2-Chloro-4-{3-chloro-4-[2-(4-cyano-3,5-dimethyl-phenyl)-3,3,3-trifluoro-2-hydroxy-1-methyl-propyl]-phenoxy}-benzoic acid methyl ester]
4 | 1.1 | CCOC(=O)COc1ccc(-c2ccc([C@@H](C)[C@@](O)(c3ccc4oc(=O)n(C)c4c3)C(F)(F)F)c(Cl)c2)cc1 (relative stereo) [Example 129, {3′-Chloro-4′-[3,3,3-trifluoro-2-hydroxy-1-methyl-2-(3-methyl-2-oxo-2,3-dihydro-benzooxazol-5-yl)-propyl]-biphenyl-4-yloxy}-acetic acid ethyl ester]
5 | 0.3 | C[C@@H](c1ccc(-c2ccc(C(=O)O)c(F)c2)cc1Cl)[C@](O)(c1ccc2oc(=O)n(C)c2c1)C(F)(F)F [Example 119, 3′-Chloro-3-fluoro-4′-[(1S,2S)-3,3,3-trifluoro-2-hydroxy-1-methyl-2-(3-methyl-2-oxo-2,3-dihydro-benzooxazol-5-yl)-propyl]-biphenyl-4-carboxylic acid]
6 | 2.1 | C[C@@H](c1ccc(Oc2ccc(C(=O)O)c(Cl)n2)cc1Cl)[C@](O)(c1ccc2c(c1)N(C)S(=O)(=O)N2C)C(F)(F)F (relative stereo) [Example 159, 2-Chloro-6-{3-chloro-4-[2-(1,3-dimethyl-2,2-dioxo-2,3-dihydro-1H-2λ6-benzo[1,2,5]thiadiazol-5-yl)-3,3,3-trifluoro-2-hydroxy-1-methyl-propyl]-phenoxy}-nicotinic acid]
7 | 2.7 | C[C@H](c1ccc(Oc2ccc(C(=O)O)c(F)c2)cc1Cl)[C@@](O)(c1ccc2c(c1)OCC(=O)N2C)C(F)(F)F (stereo in doubt) [Example 166, 4-{3-Chloro-4-[3,3,3-trifluoro-2-hydroxy-1-methyl-2-(4-methyl-3-oxo-3,4-dihydro-2H-benzo[1,4]oxazin-7-yl)-propyl]phenoxy}-2-fluoro-benzoic acid]
8 | 2.1 | COC(=O)c1ccc(Oc2ccc([C@@H](C)[C@@](O)(c3ccc4oc(=O)n(C)c4c3)C(F)(F)F)c(Cl)c2)nn1 (relative stereo) [Example 199, 6-{3-Chloro-4-[3,3,3-trifluoro-2-hydroxy-1-methyl-2-(3-methyl-2-oxo-2,3-dihydro-benzooxazol-5-yl)-propyl]-phenoxy}-pyridazine-3-carboxylic acid methyl ester]
9 | 6.9 | C[C@H](c1ccc(C(=O)NCC(=O)OC(C)(C)C)cc1Cl)[C@@](O)(c1ccc2oc(=O)n(C)c2c1)C(F)(F)F (stereo in doubt) [Example 231, {3-Chloro-4-[3,3,3-trifluoro-2-hydroxy-1-methyl-2-(3-methyl-2-oxo-2,3-dihydrobenzooxazol-5-yl)-propyl]-benzoylamino}-acetic acid tert-butyl ester]
10 | 1.1 | C[C@H](c1ccc(Oc2ccc(C(=O)O)c(C(F)(F)F)c2)cc1Cl)[C@@](O)(c1ccc2c(c1)N(C)C(=O)CO2)C(F)(F)F (racemic) [Example 220, 4-{3-Chloro-4-[3,3,3-trifluoro-2-hydroxy-1-methyl-2-(4-methyl-3-oxo-3,4-dihydro-2H-benzo[1,4]oxazin-6-yl)-propyl]-phenoxy}-2-trifluoromethyl-benzoic acid]
11 | 0.6 | C[C@H](c1ccc(O)cc1Cl)[C@@](O)(c1ccc2oc(=O)n(C)c2c1)C(F)(F)F (relative stereo) [Example 172, 5-[2-(2-Chloro-4-hydroxy-phenyl)-1-hydroxy-1-trifluoromethyl-propyl]-3-methyl-3H-benzooxazol-2-one]

Second part, the compound before the results:

Row | SMILES | Ki [nM]
12 | C[C@H](c1ccc(Oc2ncc(Cl)cc2C(=O)O)cc1Cl)[C@@](O)(c1ccc2c(c1)n(C)c(=O)n2C)C(F)(F)F (stereo in doubt) [Example 104, 5-Chloro-2-{3-chloro-4-[2-(1,3-dimethyl-2-oxo-2,3-dihydro-1H-benzoimidazol-5-yl)-3,3,3-trifluoro-2-hydroxy-1-methyl-propyl]-phenoxy}-nicotinic acid] | 1.6
13 | COC(=O)c1ccc(-c2ccc([C@H](C)[C@](O)(c3ccc4c(c3)N(C)C(=O)CO4)C(F)(F)F)c(Cl)c2)cc1OC (relative stereo) [Example 35, 3′-Chloro-3-methoxy-4′-[3,3,3-trifluoro-2-hydroxy-1-methyl-2-(4-methyl-3-oxo-3,4-dihydro-2H-benzo[1,4]oxazin-6-yl)-propyl]-biphenyl-4-carboxylic acid methyl ester] | 2.6
14 | C[C@H](c1ccc(Oc2ccc(Cl)c(C(=O)O)c2)cc1Cl)[C@@](O)(c1ccc2c(c1)N(C)C(=O)CO2)C(F)(F)F (racemic) [Example 58, 2-Chloro-5-{3-chloro-4-[3,3,3-trifluoro-2-hydroxy-1-methyl-2-(4-methyl-3-oxo-3,4-dihydro-2H-benzo[1,4]oxazin-6-yl)-propyl]-phenoxy}-benzoic acid] | 0.3
15 | COC(=O)c1ccc(-c2ccc([C@H](C)[C@](O)(c3ccc4c(c3)N(C)C(=O)CO4)C(F)(F)F)c(Cl)c2)c(F)c1 (relative stereo) [Example 33, 3′-Chloro-2-fluoro-4′-[3,3,3-trifluoro-2-hydroxy-1-methyl-2-(4-methyl-3-oxo-3,4-dihydro-2H-benzo[1,4]oxazin-6-yl)-propyl]-biphenyl-4-carboxylic acid methyl ester] | 17.3
16 | COC(=O)c1ccc(-c2ccc([C@@H](C)[C@@](O)(c3ccc4c(c3)NC(=O)CO4)C(F)(F)F)c(Cl)c2)cc1F (relative stereo) [Example 71, 3′-Chloro-3-fluoro-4′-[3,3,3-trifluoro-2-hydroxy-1-methyl-2-(3-oxo-3,4-dihydro-2H-benzo[1,4]oxazin-6-yl)-propyl]-biphenyl-4-carboxylic acid methyl ester] | 28.1
17 | CCOC(=O)COc1cc(-c2ccc([C@H](C)[C@](O)(c3cc(F)c4c(c3)N(C)C(=O)CO4)C(F)(F)F)c(Cl)c2)ccc1F (relative stereo) [Example 47, {3′-Chloro-4-fluoro-4′-[3,3,3-trifluoro-2-(8-fluoro-4-methyl-3-oxo-3,4-dihydro-2H-benzo[1,4]oxazin-6-yl)-2-hydroxy-1-methyl-propyl]-biphenyl-3-yloxy}-acetic acid ethyl ester] | 2
18 | C[C@@H](c1ccc(-c2cccc(CC(=O)O)c2)cc1Cl)[C@](O)(c1ccc2c(c1)N(C)C(=O)CO2)C(F)(F)F (relative stereo) [Example 41, {3′-Chloro-4′-[3,3,3-trifluoro-2-hydroxy-1-methyl-2-(4-methyl-3-oxo-3,4-dihydro-2H-benzo[1,4]oxazin-6-yl)-propyl]-biphenyl-3-yl}-acetic acid] | 1.5
19 | C[C@H](c1ccc(Oc2ccc(C(=O)O)c(Cl)n2)cc1Cl)[C@@](O)(c1ccc2c(c1)N(C)C(=O)CO2)C(F)(F)F (racemic) [Example 63, 2-Chloro-6-{3-chloro-4-[3,3,3-trifluoro-2-hydroxy-1-methyl-2-(4-methyl-3-oxo-3,4-dihydro-2H-benzo[1,4]oxazin-6-yl)-propyl]-phenoxy}-nicotinic acid] | 0.8
20 | C[C@@H](c1cc(Oc2ccc(C(=O)O)c(F)c2)ccc1Cl)[C@](O)(c1ccc2c(c1)N(C)C(=O)CO2)C(F)(F)F (relative stereo) [Example 14, 4-{4-Chloro-3-[3,3,3-trifluoro-2-hydroxy-1-methyl-2-(4-methyl-3-oxo-3,4-dihydro-2H-benzo[1,4]oxazin-6-yl)-propyl]-phenoxy}-2-fluoro-benzoic acid] | 3.9
21 | C[C@@H](c1ccc(-c2ccc(C(=O)O)c(F)c2)cc1Cl)[C@](O)(c1ccc(=O)n2ccccc12)C(F)(F)F (stereo in doubt) [Example 50, 3′-Chloro-3-fluoro-4′-[3,3,3-trifluoro-2-hydroxy-1-methyl-2-(4-oxo-4H-quinolizin-1-yl)-propyl]-biphenyl-4-carboxylic acid] | 48.7

From patent US8450313B2, “2,3-diaryl- or heteroaryl-substituted 1,1,1-trifluoro-2-hydroxypropyl compounds” (Hoffmann-La Roche Inc., priority 2009, dated 2013)
